Assay results: US20170217976A1, “6-(AMINO ACID)-MORPHINAN DERIVATIVES IN COMBINATION WITH PERMEATION […] FOR USE AS AN ORALLY, […], TRA[…] NASALLY AD[…]” (C[…], priority 2014, published 2017)
Like-named read-outs stand apart in the source and are kept apart here.

How the values were obtained:
[1] = molecular target: T1, DOR (Rattus norvegicus, UniProt P33533); test: Opioid receptor binding, DOR, rat brain membranes
T1 construct: from tissue

[2] = molecular target: T2, MOR (Rattus norvegicus, UniProt P33535); test: Opioid receptor binding, MOR, rat brain membranes
T2 construct: from tissue
T2 sequence (P33535 whole entry): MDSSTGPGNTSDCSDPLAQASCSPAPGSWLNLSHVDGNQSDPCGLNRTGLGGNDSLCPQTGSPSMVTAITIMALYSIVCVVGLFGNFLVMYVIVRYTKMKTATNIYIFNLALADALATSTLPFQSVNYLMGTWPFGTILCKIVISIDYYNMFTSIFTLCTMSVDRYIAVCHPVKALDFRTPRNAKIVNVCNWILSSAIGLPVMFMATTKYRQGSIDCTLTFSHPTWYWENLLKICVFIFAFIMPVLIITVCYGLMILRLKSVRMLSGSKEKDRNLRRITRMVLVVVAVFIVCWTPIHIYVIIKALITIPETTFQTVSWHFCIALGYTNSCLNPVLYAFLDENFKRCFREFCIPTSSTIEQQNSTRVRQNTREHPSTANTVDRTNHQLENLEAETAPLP

[3] = molecular target: T3, KOR (Cavia porcellus, UniProt P41144); test: Opioid receptor binding, KOR, guinea pig brain membranes
T3 construct: from tissue
T3 sequence (P41144 whole entry): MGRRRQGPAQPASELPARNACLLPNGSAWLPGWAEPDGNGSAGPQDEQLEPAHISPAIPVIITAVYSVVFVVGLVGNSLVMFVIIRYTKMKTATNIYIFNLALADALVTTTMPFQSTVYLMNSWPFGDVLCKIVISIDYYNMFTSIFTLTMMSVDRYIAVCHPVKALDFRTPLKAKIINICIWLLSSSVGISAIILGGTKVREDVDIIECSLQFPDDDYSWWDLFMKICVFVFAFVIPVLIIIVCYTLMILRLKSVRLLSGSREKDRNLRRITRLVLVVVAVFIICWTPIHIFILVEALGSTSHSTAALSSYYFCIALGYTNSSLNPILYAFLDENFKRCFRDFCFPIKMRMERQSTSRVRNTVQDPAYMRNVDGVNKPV

[4] = Binding Ki (nM) DOR, in vitro binding assay, rat brain membranes
[5] = Binding Ki (nM) MOR, in vitro binding assay, rat brain membranes
[6] = Binding Ki (nM) KOR, in vitro binding assay, guinea pig brain membranes
[7] = Binding Ki DOR, Table 1-4, rat brain membranes
[8] = Binding Ki KOR, Table 1-4, guinea pig brain membranes
[9] = Binding Ki MOR, Table 1-4, rat brain membranes
[10] = Binding Ki DOR, Table 1-6, rat brain membranes
[11] = Binding Ki DOR, Table 2-6, rat brain membranes
[12] = Binding Ki MOR, Table 1-6, rat brain membranes
[13] = Binding Ki MOR, Table 2-6, rat brain membranes
[14] = Binding Ki KOR, Table 1-6, guinea pig brain membranes
[15] = Binding Ki KOR, Table 2-6, guinea pig brain membranes
[16] = in vitro binding assay, rat brain membranes, read-out: Binding Ki (nM) DOR
[17] = in vitro binding assay, rat brain membranes, read-out: Binding Ki (nM) MOR
[18] = in vitro binding assay, guinea pig brain membranes, read-out: Binding Ki (nM) KOR

T1 sequence (P33533 whole entry): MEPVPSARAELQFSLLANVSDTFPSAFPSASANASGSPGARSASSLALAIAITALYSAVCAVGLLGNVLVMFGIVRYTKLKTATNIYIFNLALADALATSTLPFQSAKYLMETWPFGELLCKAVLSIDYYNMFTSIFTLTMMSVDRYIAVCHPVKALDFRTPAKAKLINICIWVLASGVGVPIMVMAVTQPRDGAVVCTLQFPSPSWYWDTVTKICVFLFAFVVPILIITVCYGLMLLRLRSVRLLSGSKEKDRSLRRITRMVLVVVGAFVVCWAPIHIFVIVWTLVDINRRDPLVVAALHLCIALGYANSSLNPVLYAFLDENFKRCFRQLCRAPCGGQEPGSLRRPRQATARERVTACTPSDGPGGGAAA

SMILES	Ki [1, 4]	Ki [2, 5]	Ki [3, 6]	Ki [1, 7]	Ki [3, 8]	Ki [1, 16]	also measured
CCC(C)C(NC1CCC2(OC)C3Cc4ccc(O)c5c4C2(CCN3C)C1O5)C(=O)OC(C)(C)C (single isomer, unassigned) [42-t-Bu ester]	1 nM	1.04 nM	29.2 nM				
CCC(C)C(NC1CCC2(OC)C3Cc4ccc(O)c5c4C2(CCN3C)C1O5)C(=O)OC(C)(C)C (single isomer, unassigned) [43-t-Bu ester]	2.12 nM	2.87 nM	208 nM				
COC12CCC(NC(C)C(=O)O)C3Oc4c(O)ccc5c4C31CCN(C)C2C5 (single isomer, unassigned) [Compound 1]	26.9 nM		142 nM	26.9 nM	142 nM		
COC12CCC(NC(C)C(=O)O)C3Oc4c(O)ccc5c4C31CCN(C)C2C5 (single isomer, unassigned) [Compound 2]	7.71 nM		63.7 nM	7.71 nM	63.7 nM		
COC12CCC(NCCC(=O)O)C3Oc4c(O)ccc5c4C31CCN(C)C2C5 (single isomer, unassigned) [Compound 21]	60 nM	1.3 nM	182 nM	60 nM	182 nM		Ki [2, 9]: 1.3 nM
COC12CCC(NCCC(=O)O)C3Oc4c(O)ccc5c4C31CCN(C)C2C5 (single isomer, unassigned) [Compound 22]	13.9 nM	1.04 nM	71.4 nM	13.9 nM	71.4 nM		Ki [2, 9]: 1.04 nM
COC12CCC(NC(C(=O)O)C(C)C)C3Oc4c(O)ccc5c4C31CCN(C)C2C5 (single isomer, unassigned) [Compound 28]	3.91 nM	3.16 nM	325 nM	3.91 nM	325 nM		Ki [2, 9]: 3.16 nM
COC12CCC(NC(C(=O)O)C(C)C)C3Oc4c(O)ccc5c4C31CCN(C)C2C5 (single isomer, unassigned) [Compound 29]	3.52 nM	3.04 nM	305 nM	3.52 nM	305 nM		Ki [2, 9]: 3.04 nM
COC12CCC(NC(C(=O)O)C(C)C)C3Oc4c(O)ccc5c4C31CCN(C)C2C5 (single isomer, unassigned) [Compound 30]	1.93 nM	1.7 nM	202 nM	1.93 nM	202 nM		Ki [2, 9]: 1.7 nM
COC12CCC(NC(C(=O)O)C(C)C)C3Oc4c(O)ccc5c4C31CCN(C)C2C5 (single isomer, unassigned) [Compound 31]	1.68 nM	1.02 nM	159 nM	1.68 nM	159 nM		Ki [2, 9]: 1.02 nM
COC12CCC(NC(C)C(=O)O)C3Oc4c(O)ccc5c4C31CCN(C)C2C5 (single isomer, unassigned) [Compound 53]				10.4 nM	71.5 nM		
COC12CCC(NC(C)C(=O)O)C3Oc4c(O)ccc5c4C31CCN(C)C2C5 (single isomer, unassigned) [Compound 54]				11.3 nM	142 nM		
COC12CCC(NC(C(=O)O)C(C)C)C3Oc4c(O)ccc5c4C31CCN(CC1CC1)C2C5 (single isomer, unassigned) [Compound 68]							Ki [1, 10]: 0.53 nM; Ki [1, 11]: 0.53 nM; Ki [2, 12]: 0.44 nM; Ki [2, 13]: 0.44 nM; Ki [3, 14]: 3.34 nM; Ki [3, 15]: 3.34 nM
COC12CCC(NC(C(=O)O)C(C)C)C3Oc4c(O)ccc5c4C31CCN(CC1CC1)C2C5 (single isomer, unassigned) [Compound 69]							Ki [1, 10]: 1.35 nM; Ki [1, 11]: 1.35 nM; Ki [2, 12]: 0.66 nM; Ki [2, 13]: 0.66 nM; Ki [3, 14]: 3 nM; Ki [3, 15]: 3 nM
COC12CCC(NC(C(=O)O)C(C)C)C3Oc4c(O)ccc5c4C31CCN(CC1CC1)C2C5 (single isomer, unassigned) [Compound 70]							Ki [1, 10]: 0.71 nM; Ki [1, 11]: 0.71 nM; Ki [2, 12]: 0.62 nM; Ki [2, 13]: 0.62 nM; Ki [3, 14]: 3.54 nM; Ki [3, 15]: 3.54 nM
COC12CCC(NC(C(=O)O)C(C)C)C3Oc4c(O)ccc5c4C31CCN(CC1CC1)C2C5 (single isomer, unassigned) [Compound 71]							Ki [1, 10]: 0.35 nM; Ki [1, 11]: 0.35 nM; Ki [2, 12]: 1.52 nM; Ki [2, 13]: 1.52 nM; Ki [3, 14]: 23 nM; Ki [3, 15]: 23 nM
CO[C@@]12CC[C@H](N[C@@H](C)C(=O)OC(C)(C)C)[C@@H]3Oc4c(O)ccc5c4[C@@]31CCN(C)[C@@H]2C5 [1-t-Bu ester]	0.41 nM	0.29 nM	11.3 nM				

SMILES	Ki [1, 4]	Ki [2, 5]	Ki [3, 6]	Ki [1, 7]	Ki [3, 8]	Ki [1, 16]	also measured
CO[C@@]12CC[C@@H](N[C@@H](C)C(=O)OC(C)(C)C)[C@@H]3Oc4c(O)ccc5c4[C@@]31CCN(C)[C@@H]2C5 [2-t-Bu ester]	1.36 nM	1.13 nM	93.6 nM				
CO[C@@]12CC[C@H](N[C@@H](Cc3ccccc3)C(=O)OC(C)(C)C)[C@@H]3Oc4c(O)ccc5c4[C@@]31CCN(C)[C@@H]2C5 [3-t-Bu ester]						0.93 nM	Ki [2, 17]: 0.5 nM; Ki [3, 18]: 32.5 nM
CO[C@@]12CC[C@@H](N[C@@H](Cc3ccccc3)C(=O)OC(C)(C)C)[C@@H]3Oc4c(O)ccc5c4[C@@]31CCN(C)[C@@H]2C5 [4-t-Bu ester]		2.56 nM				2.66 nM	
CCO[C@@]12CC[C@H](NCC(=O)OC(C)(C)C)[C@@H]3Oc4c(O)ccc5c4[C@@]31CCN(C)[C@@H]2C5 [5-t-Bu ester]	0.31 nM	0.2 nM	15 nM				
CCO[C@@]12CC[C@@H](NCC(=O)OC(C)(C)C)[C@@H]3Oc4c(O)ccc5c4[C@@]31CCN(C)[C@@H]2C5 [6-t-Bu ester]						0.57 nM	Ki [2, 17]: 0.81 nM; Ki [3, 18]: 34.1 nM
CCOC(=O)CNC1CCC2(OCCCc3ccccc3)C3Cc4ccc(O)c5c4C2(CCN3C)C1O5 (stereo not drawn) [7-Et ester]						0.25 nM	Ki [2, 17]: 0.43 nM; Ki [3, 18]: 0.44 nM
CN1CCC23c4c5ccc(O)c4OC2C(NCC(=O)OC(C)(C)C)CCC3(OCCCc2ccccc2)C1C5 (stereo not drawn) [7-t-Bu ester]						1.01 nM	Ki [2, 17]: 1.4 nM; Ki [3, 18]: 1.26 nM
CCOC(=O)CNC1CCC2(OCCCc3ccccc3)C3Cc4ccc(O)c5c4C2(CCN3C)C1O5 (stereo not drawn) [8-Et ester]						0.21 nM	Ki [2, 17]: 0.37 nM; Ki [3, 18]: 0.41 nM
CN1CCC23c4c5ccc(O)c4OC2C(NCC(=O)OC(C)(C)C)CCC3(OCCCc2ccccc2)C1C5 (stereo not drawn) [8-t-Bu ester]						0.92 nM	Ki [2, 17]: 1.03 nM; Ki [3, 18]: 2.02 nM
CO[C@@]12CC[C@H](N[C@@H](Cc3ccc(O)cc3)C(=O)OC(C)(C)C)[C@@H]3Oc4c(O)ccc5c4[C@@]31CCN(C)[C@@H]2C5 [9-t-Bu ester]		0.59 nM				0.42 nM	Ki [3, 18]: 12.3 nM
CO[C@@]12CC[C@@H](N[C@@H](Cc3ccc(O)cc3)C(=O)OC(C)(C)C)[C@@H]3Oc4c(O)ccc5c4[C@@]31CCN(C)[C@@H]2C5 [10-t-Bu ester]						1.88 nM	Ki [2, 17]: 1.53 nM; Ki [3, 18]: 184 nM
CO[C@@]12CC[C@H](NCCCC(=O)OC(C)(C)C)[C@@H]3Oc4c(O)ccc5c4[C@@]31CCN(C)[C@@H]2C5 [15-t-Bu ester]	7.99 nM	0.22 nM	8.82 nM				
CO[C@@]12CC[C@@H](NCCCC(=O)OC(C)(C)C)[C@@H]3Oc4c(O)ccc5c4[C@@]31CCN(C)[C@@H]2C5 [16-t-Bu ester]						1.63 nM	Ki [2, 17]: 0.54 nM; Ki [3, 18]: 8.79 nM
CO[C@@]12CC[C@H](N[C@@H](CCC(N)=O)C(=O)OC(C)(C)C)[C@@H]3Oc4c(O)ccc5c4[C@@]31CCN(C)[C@@H]2C5 [17-t-Bu ester]	0.18 nM	0.18 nM	8.97 nM				
CO[C@@]12CC[C@@H](N[C@@H](C)C(=O)OC(C)(C)C)[C@@H]3Oc4c(O)ccc5c4[C@@]31CCN(CC1CC1)[C@@H]2C5 [72-tBu ester]							Ki [1, 11]: 0.32 nM; Ki [3, 15]: 9.68 nM
CO[C@@]12CC[C@H](NCC(=O)OC(C)(C)C)[C@@H]3Oc4c(O)ccc5c4[C@@]31CCN(C)[C@@H]2C5 [HS730-t-Bu ester]	0.54 nM		12.1 nM				
